Measurements reported in PubChem BioAssay AID256 (DTP/NCI, 2004).
Toxic doses and inconclusive results are not listed. How the source made its calls: active means survival T/C of 150% or more; inactive means T/C below 125% in these data.

Test system: CD2F1 mice, L1210 leukemia ip, survival T/C
Assay: NCI In Vivo Anticancer Drug Screen. Data for tumor model L1210 Leukemia (intraperitoneal) in CD2F1 (CDF1) mice
Details: higher = longer survival
Summary of the method: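 Compound-dosed mice with transplantable tumor versus matched vehicle controls; endpoint ratio T/C reported.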

[1] = endpoint: mean survival time, dose: 50.0 mg/kg/injection, schedule: Q04DX002 (ip), vehicle: saline with Tween-80
[2] = endpoint: mean survival time, dose: 100.0 mg/kg/injection, schedule: Q04DX002 (ip), vehicle: saline with Tween-80
[3] = endpoint: mean survival time, dose: 200.0 mg/kg/injection, schedule: Q04DX002 (ip), vehicle: saline with Tween-80
[4] = endpoint: mean survival time, dose: 100.0 mg/kg/injection, schedule: Q01DX009 (ip), vehicle: saline with Tween-80
[5] = endpoint: mean survival time, dose: 200.0 mg/kg/injection, schedule: Q01DX001 (ip), vehicle: saline with Tween-80
[6] = endpoint: mean survival time, dose: 200.0 mg/kg/injection, schedule: Q01DX009 (ip), vehicle: saline with Tween-80
[7] = endpoint: mean survival time, dose: 400.0 mg/kg/injection, schedule: Q01DX001 (ip), vehicle: saline with Tween-80
[8] = endpoint: mean survival time, dose: 400.0 mg/kg/injection, schedule: Q01DX009 (ip), vehicle: saline with Tween-80
[9] = endpoint: mean survival time, dose: 50.0 mg/kg/injection, schedule: Q04DX003 (ip), vehicle: saline
[10] = endpoint: mean survival time, dose: 100.0 mg/kg/injection, schedule: Q04DX003 (ip), vehicle: saline
[11] = endpoint: mean survival time, dose: 200.0 mg/kg/injection, schedule: Q04DX003 (ip), vehicle: saline
[12] = endpoint: mean survival time, dose: 25.0 mg/kg/injection, schedule: Q01DX009 (ip), vehicle: saline
[13] = endpoint: mean survival time, dose: 50.0 mg/kg/injection, schedule: Q01DX009 (ip), vehicle: saline

Measured: T/C

CCCCCCCCCCCCCCCC(=O)OCC1OC(N2C=CC(=O)CC2=O)C(O)C1O (configuration not stated)
active: endpoint: median survival time, dose: 13.0 mg/kg/injection, schedule: Q01DX009 (ip), vehicle: saline + alcohol 174 % of control | endpoint: median survival time, dose: 20.0 mg/kg/injection, schedule: Q01DX009 (ip), vehicle: saline + alcohol 188 % of control | endpoint: median survival time, dose: 30.0 mg/kg/injection, schedule: Q01DX009 (ip), vehicle: saline + alcohol 174 % of control

COc1ccc(C2=Nc3cccc4c3N(CCC4)C2c2ccc(OC)cc2)cc1 (configuration not stated)
inactive: endpoint: mean survival time, dose: 100.0 mg/kg/injection, schedule: Q04DX003 (ip), vehicle: other 96 % of control | endpoint: mean survival time, dose: 200.0 mg/kg/injection, schedule: Q04DX003 (ip), vehicle: other 96 % of control | endpoint: mean survival time, dose: 400.0 mg/kg/injection, schedule: Q04DX003 (ip), vehicle: other 94 % of control

COc1ccc(COC(=O)Nc2ccc(C)cc2)cc1
inactive: [1] 100 % of control | [2] 100 % of control | [3] 96 % of control

C=C1C2C(c3ccccc3)=CC(C1(C)C(Cl)Cl)C(C#N)(C#N)C2(C#N)C#N (configuration not stated)
inactive: [1] 96 % of control | [2] 108 % of control | [3] 100 % of control

CCOC(=O)C(=Cc1ccc(O)c(OC)c1)C(=O)OCC
inactive: endpoint: mean survival time, dose: 100.0 mg/kg/injection, schedule: Q01DX001 (ip), vehicle: saline with Tween-80 104 % of control | [4] 93 % of control | [5] 101 % of control | [6] 101 % of control | [7] 108 % of control | [8] 101 % of control

NC(=O)c1csc(NC2OC(CO)C(O)C(O)C2O)n1 (configuration not stated)
inactive: endpoint: mean survival time, dose: 12.5 mg/kg/injection, schedule: Q01DX005 (ip), vehicle: water 98 % of control | endpoint: mean survival time, dose: 25.0 mg/kg/injection, schedule: Q01DX005 (ip), vehicle: water 96 % of control | endpoint: mean survival time, dose: 50.0 mg/kg/injection, schedule: Q01DX005 (ip), vehicle: water 101 % of control | endpoint: mean survival time, dose: 100.0 mg/kg/injection, schedule: Q01DX005 (ip), vehicle: water 96 % of control | endpoint: mean survival time, dose: 200.0 mg/kg/injection, schedule: Q01DX005 (ip), vehicle: water 98 % of control

COC(=O)c1cc(NS(=O)(=O)c2ccc(N)c([N+](=O)[O-])c2)cc(C(=O)OC)c1
inactive: [4] 98 % of control | [6] 95 % of control | [8] 96 % of control

O=C(O)CC(c1ccccc1)C(CC(=O)O)c1ccccc1.[NH-]C1CCCCC1[NH-].[Pt+2] (configuration not stated)
inactive: endpoint: median survival time, dose: 3.12 mg/kg/injection, schedule: Q04DX003 (ip), vehicle: saline with Tween-80 107 % of control | endpoint: median survival time, dose: 3.12 mg/kg/injection, schedule: Q04DX003 (ip), vehicle: saline 105 % of control | endpoint: median survival time, dose: 6.25 mg/kg/injection, schedule: Q04DX003 (ip), vehicle: saline with Tween-80 111 % of control | endpoint: median survival time, dose: 6.25 mg/kg/injection, schedule: Q04DX003 (ip), vehicle: saline 102 % of control | endpoint: median survival time, dose: 12.5 mg/kg/injection, schedule: Q04DX003 (ip), vehicle: saline with Tween-80 102 % of control | endpoint: median survival time, dose: 12.5 mg/kg/injection, schedule: Q04DX003 (ip), vehicle: saline 103 % of control | endpoint: median survival time, dose: 25.0 mg/kg/injection, schedule: Q04DX003 (ip), vehicle: saline with Tween-80 111 % of control | endpoint: median survival time, dose: 25.0 mg/kg/injection, schedule: Q04DX003 (ip), vehicle: saline 110 % of control | endpoint: median survival time, dose: 50.0 mg/kg/injection, schedule: Q04DX003 (ip), vehicle: saline with Tween-80 123 % of control | endpoint: median survival time, dose: 50.0 mg/kg/injection, schedule: Q04DX003 (ip), vehicle: saline 110 % of control | endpoint: median survival time, dose: 100.0 mg/kg/injection, schedule: Q04DX003 (ip), vehicle: saline 121 % of control

CN1CC(C(=O)NC2CCCCC2)CC2c3cccc4[nH]cc(c34)CC21 (configuration not stated)
inactive: [9] 96 % of control | [10] 92 % of control | [11] 102 % of control

CSc1nc(NC2OC(CO)C(O)C(O)C2O)cc(=O)n1C (configuration not stated)
inactive: endpoint: median survival time, dose: 12.5 mg/kg/injection, schedule: Q01DX005 (ip), vehicle: saline 102 % of control | endpoint: median survival time, dose: 25.0 mg/kg/injection, schedule: Q01DX005 (ip), vehicle: saline 100 % of control | endpoint: median survival time, dose: 50.0 mg/kg/injection, schedule: Q01DX005 (ip), vehicle: saline 102 % of control | endpoint: median survival time, dose: 100.0 mg/kg/injection, schedule: Q01DX005 (ip), vehicle: saline 102 % of control | endpoint: median survival time, dose: 200.0 mg/kg/injection, schedule: Q01DX005 (ip), vehicle: saline 100 % of control

CN(Cc1cnc2nc(N)nc(N)c2n1)c1ccc(C(=O)NC(CCC(=O)NCc2ccccc2)C(=O)O)cc1 (configuration not stated)
inactive: endpoint: mean survival time, dose: 5.0 mg/kg/injection, schedule: Q01DX009 (ip), vehicle: sodium bicarbonate 108 % of control | endpoint: mean survival time, dose: 10.0 mg/kg/injection, schedule: Q01DX009 (ip), vehicle: sodium bicarbonate 112 % of control

[Cl][Pt+2][Cl].[NH-]C(CO)C([NH-])CO (configuration not stated)
inactive: endpoint: median survival time, dose: 1.25 mg/kg/injection, schedule: Q04DX003 (ip), vehicle: water 102 % of control | endpoint: median survival time, dose: 2.5 mg/kg/injection, schedule: Q04DX003 (ip), vehicle: water 102 % of control | endpoint: median survival time, dose: 5.0 mg/kg/injection, schedule: Q04DX003 (ip), vehicle: water 115 % of control | endpoint: median survival time, dose: 20.0 mg/kg/injection, schedule: Q04DX003 (ip), vehicle: water 93 % of control
active: endpoint: median survival time, dose: 12.5 mg/kg/injection, schedule: Q04DX003 (ip), vehicle: distilled water + Tween-80 156 % of control

C=C(CC(=O)OC)C(=O)O
inactive: endpoint: mean survival time, dose: 12.5 mg/kg/injection, schedule: Q01DX009 (ip), vehicle: saline 98 % of control | [12] 98 % of control | [13] 107 % of control | endpoint: mean survival time, dose: 100.0 mg/kg/injection, schedule: Q04DX003 (ip), vehicle: saline with Tween-80 95 % of control | endpoint: mean survival time, dose: 200.0 mg/kg/injection, schedule: Q04DX003 (ip), vehicle: saline with Tween-80 98 % of control | endpoint: mean survival time, dose: 400.0 mg/kg/injection, schedule: Q04DX003 (ip), vehicle: saline with Tween-80 97 % of control

CC(=O)N1CCCC2=C1CCCCCC2
inactive: endpoint: mean survival time, dose: 12.5 mg/kg/injection, schedule: Q04DX003 (ip), vehicle: saline 101 % of control | [12] 110 % of control | endpoint: mean survival time, dose: 25.0 mg/kg/injection, schedule: Q04DX003 (ip), vehicle: saline 88 % of control | [13] 115 % of control | [9] 88 % of control | endpoint: mean survival time, dose: 100.0 mg/kg/injection, schedule: Q01DX001 (ip), vehicle: saline 96 % of control | endpoint: mean survival time, dose: 100.0 mg/kg/injection, schedule: Q01DX009 (ip), vehicle: saline 113 % of control | endpoint: mean survival time, dose: 100.0 mg/kg/injection, schedule: Q04DX002 (ip), vehicle: saline 102 % of control | [10] 90 % of control | endpoint: mean survival time, dose: 200.0 mg/kg/injection, schedule: Q01DX001 (ip), vehicle: saline 102 % of control | endpoint: mean survival time, dose: 200.0 mg/kg/injection, schedule: Q01DX009 (ip), vehicle: saline 110 % of control | endpoint: mean survival time, dose: 200.0 mg/kg/injection, schedule: Q04DX002 (ip), vehicle: saline 98 % of control | [11] 95 % of control | endpoint: mean survival time, dose: 400.0 mg/kg/injection, schedule: Q01DX001 (ip), vehicle: saline 93 % of control | endpoint: mean survival time, dose: 400.0 mg/kg/injection, schedule: Q04DX002 (ip), vehicle: saline 95 % of control | endpoint: mean survival time, dose: 400.0 mg/kg/injection, schedule: Q04DX003 (ip), vehicle: saline 91 % of control | endpoint: mean survival time, dose: 500.0 mg/kg/injection, schedule: Q04DX002 (ip), vehicle: saline 98 % of control | endpoint: mean survival time, dose: 600.0 mg/kg/injection, schedule: Q01DX001 (ip), vehicle: saline 93 % of control

O=c1[nH]c(Cc2ccccc2)c(N=Nc2ccccc2)c(=O)[nH]1
inactive: [5] 90 % of control | [7] 89 % of control

Cc1c(Cl)cc(Cl)c(N)c1Cl
inactive: [4] 93 % of control | [6] 97 % of control | [8] 97 % of control

Cc1ccc(NC(=O)N(CCCl)N=O)cc1C
active: endpoint: mean survival time, dose: 5.7 mg/kg/injection, schedule: Q01DX001 (ip), vehicle: other 188 % of control | endpoint: mean survival time, dose: 8.6 mg/kg/injection, schedule: Q01DX001 (ip), vehicle: other 190 % of control | endpoint: mean survival time, dose: 13.0 mg/kg/injection, schedule: Q01DX001 (ip), vehicle: other 204 % of control | endpoint: mean survival time, dose: 20.0 mg/kg/injection, schedule: Q01DX001 (ip), vehicle: other 309 % of control | endpoint: mean survival time, dose: 29.0 mg/kg/injection, schedule: Q01DX001 (ip), vehicle: other 191 % of control
inactive: endpoint: mean survival time, dose: 1.6 mg/kg/injection, schedule: Q01DX001 (ip), vehicle: other 115 % of control
